Columns and labels:
[1] = Partition coefficients between PBS and octan-1-ol; type: physicochemical; conditions: octan-1-ol/PBS, means ± SE of 3 determinations, read-out: Partition coefficient (converted)
Experimental: RP-HPLC was performed using a Gilson 321 pump with a C18 column (Jupiter 300 Å, Phenomenex) with a Widepore C18 guard column (Phenomenex). Samples (1 ml) were injected through a 0.22 μm PVDF filter (Millex, Millipore). HPLC buffer A [0.1% TFA in water] and HPLC buffer B (90% acetonitrile and 0.1% TFA) were used and a gradient was run at 1 ml/min at room temperature as follows: 0-2 min—5% B; 2-17 min—5-100% B; 17-19 min—100% B; 19-22 min—100-5% B. Peaks were detected by absorbance at 220 nm (UV/Vis 151, Gilson) and by fluorescence (excitation and emission wavelengths of 344 and 433 nm; RF-10AXL, Shimadzu). Partition coefficients between PBS and octan-1-ol were determined as previously described.

[2] = tested on: RLM respiring on glutamate/malate; assay: Effect on respiration of isolated RLM (oxygen electrode); parameters: species or system rat
Experimental: (A, B) RLM respiring on glutamate/malate at 37° C. were incubated with various concentrations of MitoG for 7 min in an oxygen electrode to measure coupled respiration (A) before ADP was added to measure phosphorylating respiration (B). Data are the percentage of the respiration rates of untreated controls (dashed lines). (C and D) C2C12 cells (C) or BAECs [Bovine Aortic Endothelial Cells; Cell Applications Inc, San Diego, Calif.] (D) were incubated with MitoG for 24 h and cell survival was then determined using the MTS assay. Data are expressed as a percentage of the untreated controls (dashed line). (E-H) BAECs were incubated with MitoG for 2 h at 37° C. and the cellular oxygen consumption rate (OCR) after the sequential additions of oligomycin, FCCP and antimycin A/rotenone were then measured using a Seahorse XF24 analyser. (E) OCR due to ATP synthesis, (F) OCR due to proton leak, (G) reserve capacity and (H) non-mitochondrial oxygen consumption. […]
Rat liver mitochondria (RLM) were prepared at 4° C. in STE buffer [250 mM sucrose, 5 mM Tris and 1 mM EGTA, pH 7.4 (HCl)] by homogenisation and differential centrifugation. Protein concentration was determined using the biuret assay relative to bovine serum albumin (BSA) and was typically 40-60 mg/ml. […] Oxygen consumption rates were determined from the slopes using Chart v5.5.6. for Mac (AD Instruments, Australia). […]

C2C12 cells [3] = assay: Cell survival, MTS assay, C2C12; type: cell-based, mouse; conditions: C2C12, 24 h
Experimental: (A, B) RLM respiring on glutamate/malate at 37° C. were incubated with various concentrations of MitoG for 7 min in an oxygen electrode to measure coupled respiration (A) before ADP was added to measure phosphorylating respiration (B). Data are the percentage of the respiration rates of untreated controls (dashed lines). (C and D) C2C12 cells (C) or BAECs [Bovine Aortic Endothelial Cells; Cell Applications Inc, San Diego, Calif.] (D) were incubated with MitoG for 24 h and cell survival was then determined using the MTS assay. Data are expressed as a percentage of the untreated controls (dashed line). (E-H) BAECs were incubated with MitoG for 2 h at 37° C. and the cellular oxygen consumption rate (OCR) after the sequential additions of oligomycin, FCCP and antimycin A/rotenone were then measured using a Seahorse XF24 analyser. (E) OCR due to ATP synthesis, (F) OCR due to proton leak, (G) reserve capacity and (H) non-mitochondrial oxygen consumption. Results are means±S.E. of three independent experiments. *, P<0.05 or **, P<0.01 relative to untreated controls.
To assess cell viability, C2C12 cells or BAECs were seeded at a density of 10,000 cells/well and 40,000 cells/well, respectively, in 96-well plates. […] After 2 h absorbance was read at 490 nm in a plate reader (SpectraMax Plus 384, Molecular Devices). […]

[4] = Reaction with reactive aldehydes followed by RP-HPLC; conditions: RP-HPLC analysis, data not shown
From the text: MitoG reacted with methylglyoxal and glyoxal to form products with identical absorption, fluorescence and RP-HPLC properties (FIGS. 3E, F, G & H) to those of independently synthesized and characterized MQE or QE (FIGS. 3B, C & D). […] Thus the reaction of MitoG with these aldehydes is not diagnostically useful, in contrast to that with 1,2-dicarbonyls, which generates stable, dominant products.

C2C12 cells [5] = assay: Protection against dicarbonyl-induced cell death, C2C12, MTS assay; type: cell-based, mouse; conditions: pre-treated 1 h, overnight
Experimental: Isolated RLM respiring on glutamate/malate were incubated with MitoG, methoxyphenylenediamine (MP) or butylTPP for 2 min, followed by 0.5 mM methylglyoxal or 5 mM glyoxal for 5 min. ADP was then added and the rate of oxygen consumption monitored at 37° C. (see FIGS. 12A & 12B). C2C12 cells were pre-treated with MitoG, methoxyphenylenediamine (MP) or butylTPP for 1 h before exposure to 1 mM methylglyoxal or 5 mM glyoxal (see FIGS. 12C & 12D). Following an overnight incubation, cell survival was determined using the MTS assay. Similar experiments were conducted in BAECs pre-treated with MitoG, MP or butylTPP. For all experiments, concentrations of methylglyoxal and glyoxal used were chosen based on results from studies conducted prior to the protection assays. In these prior studies, RLM or cells were exposed to a range of dicarbonyl concentrations, and the phosphorylating rates of respiration or cell survival were evaluated. The results of these earlier experiments are shown in insets, and dicarbonyl concentrations that had caused significant respiratory depression or cell death were chosen for use in the protection assays. Data for all groups were normalized against untreated controls. For RLM, the rate of respiration by untreated controls was taken to be 100%; for cells, cell survival of untreated controls was taken to be 100%. Results are expressed as mean±S.E. of three independent experiments. MitoG was protective against methylglyoxal-induced respiratory depression and both methylglyoxal- and glyoxal-induced cell death in C2C12 cells and BAECs. […] In FIG. 12 the symbols *, ** respectively indicate that P<0.05 or P<0.01 relative to dicarbonyl-only groups; and the symbols +, ++ respectively indicate that P<0.05 or P<0.01 relative to untreated controls.

## Nc1ccc(OCCCCCC[P+](c2ccccc2)(c2ccccc2)c2ccccc2)cc1N [MitoG, (6-(3,4-Diaminophenoxy)hexyl)triphenylphosphonium chloride]
[1]
  logD: 0.38
[2]; 5 μM MitoG
  coupled respiration (proton leak): slight increase in proton leak
[2]; up to 5 μM MitoG
  phosphorylating respiration: no effect
C2C12 cells [3]
  concentration above which cell viability decreased: above 10 μM
[4]
  reaction with HNE or acrolein: did react, a number of products were formed some of which were unstable
C2C12 cells [5]; C2C12, 1 mM methylglyoxal
  protection against methylglyoxal-induced cell death: protective
C2C12 cells [5]; C2C12, 5 mM glyoxal
  protection against glyoxal-induced cell death: protective

— US9963474B2, “Mitochondria-targeted dicarbonyl sequestering compounds” (MEDICAL RESEARCH COUNCIL, priority 2013, dated 2018)
